≈ marks a conversion by molar mass, not a printed value.
Tests used:
Type in all cases: functional
Escherichia coli = test: Antibacterial activity against Escherichia coli ATCC 25922 after 24 hrs by broth microdilution based CLSI method; conditions: ATCC 25922, 24 h
Pseudomonas aeruginosa = test: Antibacterial activity against Pseudomonas aeruginosa ATCC 27853 after 24 hrs by broth microdilution based CLSI method; conditions: ATCC 27853, 24 h
Bacillus pumilus = test: Antibacterial activity against Bacillus pumilus CMCC63202 after 24 hrs by broth microdilution based CLSI method; conditions: CMCC63202, 24 h
Staphylococcus aureus [1] = test: Antibacterial activity against methicillin-resistant Staphylococcus aureus ATCC 43300 after 24 hrs by broth microdilution based CLSI method; conditions: ATCC 43300, 24 h
Staphylococcus aureus [2] = test: Antibacterial activity against Staphylococcus aureus ATCC 25923 after 24 hrs by broth microdilution based CLSI method; conditions: ATCC 25923, 24 h
Staphylococcus aureus [3] = test: Antibacterial activity against clinical isolate of penicillin-resistant Staphylococcus aureus after 24 hrs by broth microdilution based CLSI method
Bacillus subtilis = test: Antibacterial activity against Bacillus subtilis ATCC 9372 after 24 hrs by broth microdilution based CLSI method; conditions: ATCC 9372, 24 h

Row | SMILES | MIC (Escherichia coli) | MIC (Pseudomonas aeruginosa) | MIC (Bacillus pumilus) | MIC (Staphylococcus aureus [1]) | MIC (Staphylococcus aureus [2]) | MIC (Staphylococcus aureus [3]) | MIC (Bacillus subtilis)
1 | NC(=O)c1c(F)ccc(OCc2cc(-c3ccc(-c4cccc5ccccc45)cc3)no2)c1F | > 64 µg/mL | > 64 µg/mL | > 64 µg/mL | > 64 µg/mL | > 64 µg/mL | > 64 µg/mL | > 64 µg/mL
2 | CCOc1ccc(-c2cc(COc3ccc(F)c(C(N)=O)c3F)on2)cc1 | > 64 µg/mL | > 64 µg/mL | > 64 µg/mL | > 64 µg/mL | > 64 µg/mL | > 64 µg/mL | 1 µg/mL (≈ 2.67 µM)
3 | Cc1c(COc2ccc(F)c(C(N)=O)c2F)noc1-c1ccc(C(C)(C)C)cc1 | > 64 µg/mL | > 64 µg/mL | 1 µg/mL (≈ 2.5 µM) | > 64 µg/mL | > 64 µg/mL | > 64 µg/mL | 0.5 µg/mL (≈ 1.25 µM)
4 | NC(=O)c1c(F)ccc(OCc2cc(-c3ccco3)no2)c1F | > 64 µg/mL | > 64 µg/mL | > 64 µg/mL | > 64 µg/mL | > 64 µg/mL | > 64 µg/mL | 32 µg/mL (≈ 99.9 µM)
5 | CCOc1cccc(-c2cc(COc3ccc(F)c(C(N)=O)c3F)no2)c1 | > 64 µg/mL | > 64 µg/mL | > 64 µg/mL | > 64 µg/mL | > 64 µg/mL | > 64 µg/mL | 32 µg/mL (≈ 85.5 µM)
6 | NC(=O)c1c(F)ccc(OCc2cc(-c3ccc(Cl)cc3)no2)c1F | > 64 µg/mL | > 64 µg/mL | > 64 µg/mL | > 64 µg/mL | > 64 µg/mL | > 64 µg/mL | 4 µg/mL (≈ 11 µM)
7 | CCCOc1cccc(-c2cc(COc3ccc(F)c(C(N)=O)c3F)on2)c1 | > 64 µg/mL | > 64 µg/mL | > 64 µg/mL | > 64 µg/mL | > 64 µg/mL | > 64 µg/mL | 64 µg/mL (≈ 165 µM)
8 | COc1cc(-c2cc(COc3ccc(F)c(C(N)=O)c3F)on2)cc(OC)c1OC | > 64 µg/mL | > 64 µg/mL | > 64 µg/mL | > 64 µg/mL | > 64 µg/mL | > 64 µg/mL | > 64 µg/mL
9 | NC(=O)c1c(F)ccc(OCc2cc(-c3ccc(Cl)cc3)on2)c1F | > 64 µg/mL | > 64 µg/mL | > 64 µg/mL | > 64 µg/mL | > 64 µg/mL | > 64 µg/mL | 64 µg/mL (≈ 175 µM)
10 | NC(=O)c1c(F)ccc(OCc2cc(-c3ccccc3)on2)c1F | > 64 µg/mL | > 64 µg/mL | > 64 µg/mL | > 64 µg/mL | > 64 µg/mL | > 64 µg/mL | 64 µg/mL (≈ 194 µM)
11 | NC(=O)c1c(F)ccc(OCc2cc(-c3ccccc3)no2)c1F | > 64 µg/mL | > 64 µg/mL | > 64 µg/mL | > 64 µg/mL | > 64 µg/mL | > 64 µg/mL | 64 µg/mL (≈ 194 µM)
12 | NC(=O)c1c(F)ccc(OCc2cc(-c3ccc(Cl)c(Cl)c3)on2)c1F | > 64 µg/mL | > 64 µg/mL | > 64 µg/mL | > 64 µg/mL | > 64 µg/mL | > 64 µg/mL | > 64 µg/mL
13 | NC(=O)c1c(F)ccc(OCc2cc(-c3ccc(-c4ccccc4)cc3)no2)c1F | > 64 µg/mL | > 64 µg/mL | > 64 µg/mL | > 64 µg/mL | > 64 µg/mL | > 64 µg/mL | > 64 µg/mL
14 | Cc1ccc(-c2cc(COc3ccc(F)c(C(N)=O)c3F)on2)cc1 | > 64 µg/mL | > 64 µg/mL | > 64 µg/mL | > 64 µg/mL | > 64 µg/mL | > 64 µg/mL | 8 µg/mL (≈ 23.2 µM)
15 | CC(C)(C)c1ccc(-c2onc(COc3ccc(F)c(C(N)=O)c3F)c2Br)cc1 | > 64 µg/mL | > 64 µg/mL | 1 µg/mL (≈ 2.15 µM) | > 64 µg/mL | > 64 µg/mL | > 64 µg/mL | 1 µg/mL (≈ 2.15 µM)
16 | COc1cccc(-c2cc(COc3ccc(F)c(C(N)=O)c3F)on2)c1 | > 64 µg/mL | > 64 µg/mL | > 64 µg/mL | > 64 µg/mL | > 64 µg/mL | > 64 µg/mL | 64 µg/mL (≈ 178 µM)
17 | CCCOc1ccc(-c2cc(COc3ccc(F)c(C(N)=O)c3F)no2)cc1 | > 64 µg/mL | > 64 µg/mL | > 64 µg/mL | > 64 µg/mL | > 64 µg/mL | > 64 µg/mL | > 64 µg/mL
18 | CCOc1ccc(-c2cc(COc3ccc(F)c(C(N)=O)c3F)no2)cc1 | > 64 µg/mL | > 64 µg/mL | > 64 µg/mL | > 64 µg/mL | > 64 µg/mL | > 64 µg/mL | > 64 µg/mL
19 | CCOc1cccc(-c2cc(COc3ccc(F)c(C(N)=O)c3F)on2)c1 | > 64 µg/mL | > 64 µg/mL | 16 µg/mL (≈ 42.7 µM) | > 64 µg/mL | > 64 µg/mL | > 64 µg/mL | 2 µg/mL (≈ 5.34 µM)
20 | NC(=O)c1c(F)ccc(OCc2cc(-c3ccccc3Cl)no2)c1F | > 64 µg/mL | > 64 µg/mL | 16 µg/mL (≈ 43.9 µM) | > 64 µg/mL | > 64 µg/mL | > 64 µg/mL | 8 µg/mL (≈ 21.9 µM)

Row | SMILES | MIC (Escherichia coli) | MIC (Pseudomonas aeruginosa) | MIC (Bacillus pumilus) | MIC (Staphylococcus aureus [1]) | MIC (Staphylococcus aureus [2]) | MIC (Staphylococcus aureus [3]) | MIC (Bacillus subtilis)
21 | COc1ccc(-c2cc(COc3ccc(F)c(C(N)=O)c3F)on2)cc1 | > 64 µg/mL | > 64 µg/mL | > 64 µg/mL | 4 µg/mL (≈ 11.1 µM) | 64 µg/mL (≈ 178 µM) | > 64 µg/mL | 3 µg/mL (≈ 8.33 µM)
22 | COc1ccc(-c2cc(COc3ccc(F)c(C(N)=O)c3F)no2)cc1 | > 64 µg/mL | > 64 µg/mL | > 64 µg/mL | > 64 µg/mL | > 64 µg/mL | > 64 µg/mL | 64 µg/mL (≈ 178 µM)
23 | CCCCOc1cccc(-c2cc(COc3ccc(F)c(C(N)=O)c3F)on2)c1 | > 64 µg/mL | > 64 µg/mL | > 64 µg/mL | > 64 µg/mL | > 64 µg/mL | > 64 µg/mL | 64 µg/mL (≈ 159 µM)
24 | CCCCc1ccc(-c2cc(COc3ccc(F)c(C(N)=O)c3F)no2)cc1 | > 64 µg/mL | > 64 µg/mL | > 64 µg/mL | > 64 µg/mL | > 64 µg/mL | > 64 µg/mL | 0.06 µg/mL (≈ 0.155 µM)
25 | NC(=O)c1c(F)ccc(OCc2cc(-c3ccc(-c4ccccn4)cc3)no2)c1F | > 64 µg/mL | > 64 µg/mL | > 64 µg/mL | > 64 µg/mL | > 64 µg/mL | > 64 µg/mL | 64 µg/mL (≈ 157 µM)
26 | Cc1cccc(-c2cc(COc3ccc(F)c(C(N)=O)c3F)no2)c1 | > 64 µg/mL | > 64 µg/mL | > 64 µg/mL | > 64 µg/mL | > 64 µg/mL | > 64 µg/mL | 32 µg/mL (≈ 92.9 µM)
27 | Cc1ccc(-c2cc(COc3ccc(F)c(C(N)=O)c3F)no2)cc1 | > 64 µg/mL | > 64 µg/mL | > 64 µg/mL | > 64 µg/mL | > 64 µg/mL | > 64 µg/mL | 64 µg/mL (≈ 186 µM)
28 | CCCCCc1ccc(-c2cc(COc3ccc(F)c(C(N)=O)c3F)on2)cc1 | > 64 µg/mL | > 64 µg/mL | > 64 µg/mL | > 64 µg/mL | > 64 µg/mL | > 64 µg/mL | 1 µg/mL (≈ 2.5 µM)
29 | CC(C)c1ccc(-c2cc(COc3ccc(F)c(C(N)=O)c3F)on2)cc1 | > 64 µg/mL | > 64 µg/mL | 32 µg/mL (≈ 85.9 µM) | > 64 µg/mL | > 64 µg/mL | > 64 µg/mL | 2 µg/mL (≈ 5.37 µM)
30 | NC(=O)c1c(F)ccc(OCc2cc(-c3cccc(Cl)c3)on2)c1F | > 64 µg/mL | > 64 µg/mL | > 64 µg/mL | > 64 µg/mL | > 64 µg/mL | > 64 µg/mL | 8 µg/mL (≈ 21.9 µM)
31 | NC(=O)c1c(F)ccc(OCc2cc(-c3cccc(Cl)c3)no2)c1F | > 64 µg/mL | > 64 µg/mL | > 64 µg/mL | > 64 µg/mL | > 64 µg/mL | > 64 µg/mL | 8 µg/mL (≈ 21.9 µM)
32 | CC(C)=Cc1cc(COc2ccc(F)c(C(N)=O)c2F)on1 | > 64 µg/mL | > 64 µg/mL | > 64 µg/mL | > 64 µg/mL | > 64 µg/mL | > 64 µg/mL | 32 µg/mL (≈ 104 µM)
33 | N#Cc1ccc(-c2cc(COc3ccc(F)c(C(N)=O)c3F)on2)cc1 | > 64 µg/mL | > 64 µg/mL | > 64 µg/mL | > 64 µg/mL | > 64 µg/mL | > 64 µg/mL | 64 µg/mL (≈ 180 µM)
34 | NC(=O)c1c(F)ccc(OCc2cc(/C=C/c3ccccc3)no2)c1F | > 64 µg/mL | > 64 µg/mL | > 64 µg/mL | > 64 µg/mL | > 64 µg/mL | > 64 µg/mL | 8 µg/mL (≈ 22.5 µM)
35 | NC(=O)c1c(F)ccc(OCc2cc(-c3ccc(C4CCCCC4)cc3)no2)c1F | > 64 µg/mL | > 64 µg/mL | > 64 µg/mL | > 64 µg/mL | > 64 µg/mL | > 64 µg/mL | > 64 µg/mL
36 | CC(C)(C)c1ccc(-c2cc(CCOc3ccc(F)c(C(N)=O)c3F)no2)cc1 | > 64 µg/mL | > 64 µg/mL | > 64 µg/mL | > 64 µg/mL | > 64 µg/mL | > 64 µg/mL | > 64 µg/mL
37 | CN(C)c1ccc(-c2cc(COc3ccc(F)c(C(N)=O)c3F)on2)cc1 | > 64 µg/mL | > 64 µg/mL | > 64 µg/mL | > 64 µg/mL | > 64 µg/mL | > 64 µg/mL | > 64 µg/mL
38 | COc1ccccc1-c1cc(COc2ccc(F)c(C(N)=O)c2F)on1 | > 64 µg/mL | > 64 µg/mL | > 64 µg/mL | > 64 µg/mL | > 64 µg/mL | > 64 µg/mL | > 64 µg/mL
39 | NC(=O)c1c(F)ccc(OCc2cc(-c3cccs3)no2)c1F | > 64 µg/mL | > 64 µg/mL | > 64 µg/mL | > 64 µg/mL | > 64 µg/mL | > 64 µg/mL | 32 µg/mL (≈ 95.1 µM)
40 | NC(=O)c1c(F)ccc(OCc2cc(-c3ccc(F)cc3)no2)c1F | > 64 µg/mL | > 64 µg/mL | > 64 µg/mL | > 64 µg/mL | > 64 µg/mL | > 64 µg/mL | 4 µg/mL (≈ 11.5 µM)

From ChEMBL document CHEMBL4257566, “Design, synthesis and structure-based optimization of novel isoxazole-containing benzamide derivatives as FtsZ modulators” (Eur J Med Chem, 2018)
